According to ChEMBL document CHEMBL1201862, “PubChem BioAssay data set” (2004):
Activity calls are given as the source filed them. Rule as the data show it, for most assays here: active = IC50 of 5 µM or less and inactive = more.

How the values were obtained:
[1] = P. falciparum Dd2 growth inhibitors, dose response, SYBR Green, cherry-picked samples (AID 1159567); type: functional, cell-based
[2] = toxicity to human hepatoma HepG2 cells – cell-based, cherry-picked samples, cytotoxicity control, dose response (AID 1159577); type: functional
[3] = BioA aminotransferase inhibition, coupled fluorescent readout – biochemical, coupled fluorescence displacement, 20-point, dry powder, dose response (AID 743357); type: functional
[4] = growth inhibition of yeast DHODH-expressing 3D7 parasites – SYBR Green, dry powder samples, dose response (AID 1159570); type: functional, cell-based;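 also: parasite growth measured after 72 hours of compound exposure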
[5] = Dd2 malaria parasite growth inhibition potency – SYBR Green, dry powder samples, dose response (AID 1159566); type: functional, cell-based;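 also: potency for growth inhibition with lower SYBR green DNA signal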
[6] = growth inhibition of PfATP4-mutant resistant parasites – NITD609-resistant line, SYBR Green, dry powder, dose response (AID 1159571); type: functional, cell-based;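 also: parasites synchronized at ring stage by sorbitol before testing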
[7] = CellTiter-Glo luminescence survival assay, SW480 colon tumor line, concentration-response curve, half-maximal inhibitory concentration (AID 1117338); type: functional
[8] = RKO cell viability reduction, dose response, CellTiter-Glo luminescence (AID 1117322); type: functional
[9] = cytotoxicity toward HCT116 cells – cell-based, CellTiter-Glo luminescence, IC50, dose response (AID 1117332); type: functional; conditions: HCT-116
[10] = SNU-C1 cell viability reduction, dose response, CellTiter-Glo luminescence (AID 1117323); type: functional, cell-based
[11] = cytotoxicity toward Colo320 cells – cell-based, CellTiter-Glo luminescence, IC50, dose response (AID 1117334); type: functional; conditions: COLO 320
[12] = cytotoxicity toward HT-29 cells – cell-based, CellTiter-Glo luminescence, IC50, dose response (AID 1117330); type: functional
[13] = Reduced DLD-1 viability, concentration-response, CellTiter-Glo luminescence (AID 1117352); type: functional
[14] = HCT116 cell viability decrease, GSK3B pretreatment – CellTiter-Glo, IC50, dose response (AID 1117339); type: functional; conditions: HCT-116
[15] = IC50 of insulin release inhibition, rat insulinoma INS-1E line, 5 mM glucose, cell-based (AID 1117331); type: functional
[16] = glucagon-like peptide-1 release potency in STC-1, concentration-response, half-maximal inhibitory concentration in the STC-1 line (AID 1117345); type: functional, cell-based
[17] = Potency on glucagon-like peptide 1 release, dose-response in NCI-H716 cell line, half maximal inhibitory concentration (AID 1117344); type: functional, cell-based

With `Cc1cccc(S(=O)(=O)N2CCCCN3[C@@H](CO)[C@@H](c4ccc(C#CC(C)C)cc4)[C@@H]3C2)c1` the AC50 [1] was 1.18 µM (active) and the AC50 [2] was 15.1 µM (active).
For `COC(=O)c1ccc(N2CCN(C(=O)c3ccc4c(c3)OCO4)CC2)cc1`, the AC50 [3] was 12.4 µM (active).
In the case of `CCC(=O)N1CCC2(CC1)CN(S(=O)(=O)c1ccccc1)[C@@H](CO)c1[nH]c3cc(OC)ccc3c12`, the AC50 [4] is reported as 1.31 µM (active), the AC50 [1] is reported as 2.04 µM (active) and the AC50 [5] is reported as 1.47 µM (active). For the same molecule, the AC50 [6] was 0.961 µM (active).
For `CN1CCC(=C2c3ccccc3C=Cc3ccccc32)CC1` [CYPROHEPTADINE], the IC50 [7] was 5.92 µM (inactive), the IC50 [8] was 11.3 µM (inactive) and the IC50 [9] was > 20 µM (inactive). For the same molecule, the IC50 [10] was 10.8 µM (inactive), the IC50 [11] was > 20 µM (inactive) and the IC50 [12] was > 20 µM (inactive). For the same molecule, the IC50 [13] was > 20 µM (inactive) and the IC50 [14] was > 20 µM (inactive).
With `COc1ccc(/C=N/NC(=O)c2ccncc2)cc1OC` [VERAZIDE] the IC50 [15] was > 33.3 µM (inactive), the IC50 [16] was > 40 µM (inactive) and the IC50 [17] was 20 µM (inactive).
